Reference: patent US6720346B2, “Thiazole benzamide derivatives and pharmaceutical compositions for inhibiting cell proliferation” (Agouron Pharmaceuticals, Inc., priority 2001, dated 2004)
Structures can show the parent of a compound that is named as a salt.

Legend:
[1] = target: T1, human CDK1 (cdc2)/cyclin B (Homo sapiens, UniProt P06493); test: Inhibition of CDK1 (cdc2)/cyclin B histone H1 kinase activity; assay type: biochemical; details: histone H1 substrate
T1 construct: purchased New England Biolabs (Beverly, Mass.)
Protocol: Cyclin-dependent kinase activity was measured by quantifying the enzyme-catalyzed, time-dependent incorporation of radioactive phosphate from [^32P]ATP or [^33P]ATP into a protein substrate. Unless noted otherwise, assays were performed in 96-well plates in a total volume of 50 μL, in the presence of 10 mM HEPES (N-[2-hydroxyethyl]piperazine-N′-[2-ethanesulfonic acid]) (pH 7.4), 10 mM MgCl2, 25 μM adenosine triphosphate (ATP), 1 mg/mL ovalbumin, 5 μg/mL leupeptin, 1 mM dithiothreitol, 10 mM β-glycerophosphate, 0.1 mM sodium vanadate, 1 mM sodium fluoride, 2.5 mM ethylene glycol-bis(β-aminoethyl ether)-N,N,N′N′-tetraacetic acid (EGTA), 2% (v/v) dimethylsulfoxide, and 0.03-0.4 μCi [^32/33P]ATP per reaction. Reactions were initiated with enzyme, incubated at 30° C., and terminated after 20 minutes by the addition of ethylenediaminetetraacetic acid (EDTA) to 250 mM. The phosphorylated substrate was then captured on a nitrocellulose or phosphocellulose membrane using a 96-well filtration manifold, and unincorporated radioactivity was removed by repeated washing with 0.85% phosphoric acid. Radioactivity was quantified by exposing the dried membranes to a phosphorimager.
Compounds from combinatorial libraries were screened from 96-well plates for % inhibition of CDK activity at 30 nM theoretical compound concentration. Inhibition was measured relative to control wells that contained all reaction components including 2% (v/v) DMSO but no compound, after subtraction of background radioactivity measured in the absence of enzyme. Apparent Ki values of discrete compounds were measured by assaying enzyme activity in the presence of different inhibitor compound concentrations and subtracting the background radioactivity measured in the absence of enzyme. The kinetic parameters (kcat, Km for ATP) were measured for each enzyme under the usual assay conditions by determining the dependence of initial rates on ATP concentration. Inhibition data were fit to an equation for competitive inhibition using Kaleidagraph (Synergy Software), or were fit to an equation for competitive tight-binding inhibition using the software KineTic (BioKin, Ltd.).
The complex of human CDK1 (cdc2) and cyclin B was purchased from New England Biolabs (Beverly, Mass.). Alternatively, a CDK1/glutathione-S-transferase-cyclin B1 complex was purified using glutathione affinity chromatography from insect cells that had been co-infected with the corresponding baculovirus expression vectors. The assay was executed as described above at 30° C. using 2.5 units of cdc2/cyclin B, 10 μg Histone H1 protein, and 0.1-0.3 μCi [^32/33P]ATP per assay. Phosphorylated histone substrate was captured by microfiltration on a phosphocellulose P81 membrane and quantified using a phosphorimager as described above. Ki values were measured using the described curve-fitting programs.

HCT-116 cell line = test: Inhibition of cell growth, MTT tetrazolium salt assay; assay type: cell-based; details: Homo sapiens, HCT-116, 120 h, MTT, three to five days; for IC90: 90% inhibition of growth
Outline: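 Growth inhibition was read as MTT-formazan absorbance at 540 nm, after 4 h with 0.2 mg/mL MTT. Before that, HCT-116 cells had been exposed 3–5 days at 37 °C to compounds in 0.5% (v/v) DMSO, added 4 h after plating. 50% and 90% inhibitory concentrations were taken from semi-log concentration–inhibition plots versus vehicle controls.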

T1 sequence (P06493 whole entry): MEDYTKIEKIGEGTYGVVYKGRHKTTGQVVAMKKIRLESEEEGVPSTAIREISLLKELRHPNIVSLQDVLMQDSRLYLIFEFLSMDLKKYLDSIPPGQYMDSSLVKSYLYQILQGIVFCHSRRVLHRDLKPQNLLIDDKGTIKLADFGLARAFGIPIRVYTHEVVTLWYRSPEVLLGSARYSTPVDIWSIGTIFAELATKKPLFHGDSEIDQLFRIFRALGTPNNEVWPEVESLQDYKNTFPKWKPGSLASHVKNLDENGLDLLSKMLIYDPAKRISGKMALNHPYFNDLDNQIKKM
T1 sequence (P14635 whole entry partner): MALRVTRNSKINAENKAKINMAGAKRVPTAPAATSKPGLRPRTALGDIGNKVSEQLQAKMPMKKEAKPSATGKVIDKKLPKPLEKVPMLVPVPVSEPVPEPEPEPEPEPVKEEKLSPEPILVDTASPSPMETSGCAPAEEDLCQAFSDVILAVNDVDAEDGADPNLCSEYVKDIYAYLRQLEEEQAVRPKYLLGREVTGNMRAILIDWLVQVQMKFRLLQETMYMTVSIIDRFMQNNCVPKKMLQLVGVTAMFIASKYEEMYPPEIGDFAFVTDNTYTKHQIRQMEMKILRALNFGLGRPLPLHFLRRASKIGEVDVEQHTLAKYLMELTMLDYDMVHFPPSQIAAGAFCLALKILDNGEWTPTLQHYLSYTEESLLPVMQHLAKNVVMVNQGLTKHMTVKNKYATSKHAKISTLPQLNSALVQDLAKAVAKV

| Compound | Ki [1] | IC50 (HCT-116 cell line) | IC90 (HCT-116 cell line) |
| --- | --- | --- | --- |
| Nc1nc(Nc2ccc(C(=O)NCCc3ccc(O)cc3)cc2)sc1C(=O)c1c(F)cccc1F [Example A14, 4-[4-Amino-5-(2,6-difluoro-benzoyl)-thiazol-2-ylamino]-N-[2-(4-hydroxy-phenyl)-ethyl]-benzamide] | 42 nM | 42 nM | – |
| CC(CN(C)C)NC(=O)c1ccc(Nc2nc(N)c(C(=O)c3c(F)cccc3F)s2)cc1 (stereo not drawn) [Example A20, 4-[4-Amino-5-(2,6-difluoro-benzoyl)-thiazol-2-ylamino]-N-(2-dimethylamino-1RS-methyl-ethyl)-benzamide Hydrochloride Salt] | 150 nM | 76 nM | 180 nM |
| CN1CCC[C@H]1CNC(=O)c1ccc(Nc2nc(N)c(C(=O)c3c(F)cccc3F)s2)cc1 [Example A31, 4-[4-Amino-5-(2,6-difluoro-benzoyl)-thiazol-2-ylamino]-N-(1-methyl-pyrrolidin-2S-yl-methyl)-benzamide Dihydrochloride] | 82 nM | 30 nM | 70 nM |
| Nc1nc(Nc2ccc(C(=O)Nc3ccc(N4CCOCC4)cc3)cc2)sc1C(=O)c1c(F)cccc1F [Example A21] | 120 nM | 100 nM | – |
| Nc1nc(Nc2ccc(C(=O)NCCN3CCCCC3)cc2)sc1C(=O)c1c(F)cccc1F [Example A15, 4-[4-Amino-5-(2,6-difluoro-benzoyl)-thiazol-2-ylamino]-N-(2-piperidin-1-yl-ethyl)-benzamide] | 68 nM | 90 nM | – |
